From US10793521B2, “Crystalline form II of dextral oxiracetam, preparation method therefor and use thereof” (CHONGQING RUNZE PHARMACEUTICAL COMPANY LIMITED, priority 2016, dated 2020)
Entries after “also recorded” stand apart in the source; their conditions may differ.

Columns and labels:
Type in all cases: physicochemical
[1] = Solubility in water
[2] = Accelerated test for crystalline form stability; details: 40° C.±2° C., relative humidity 75%±5%
Description: The accelerated test for crystalline form stability was performed in accordance with the provisions relating to the accelerated test of active pharmaceutical ingredients under “Guidelines for the Stability Test of Active Ingredient Pharmaceutical Ingredients and Pharmaceutical Preparations” of Pharmacopoeia 2010 Appendix XIXC. The crystalline form II of dextral oxiracetam was placed in a beaker and the test was carried out in a constant temperature and humidity chamber at a temperature of 40° C.±2° C. and a relative humidity of 75%±5%.

[3] = Dynamic vapor sorption (DVS) test with powder X-ray diffraction characterization
Description: The test parameters were given as follows: weighing: Ultra Digital Microbalance SMS Ultra Balance™; flow rate: N2, 200 sccm, System Control Software: DVS-Intrinsic control software ver. 1.0.3.1, Data Analysis Software: Isotherm (ISO) analysis suite. 22.4 mg of sample of crystalline form II of dextral oxiracetam was weighed for the test, dried at RH=0%, the mass was balanced to ensure removal of moisture adsorbed on the surface, then placed on metal sample tray, and dried at 0% RH for 2 h. The test was performed at a constant temperature of 25° C., and the relative humidity (RH %) was controlled to vary cyclically from 0% to 90% to 0% RH with a 10% gradient. The variation of the sample weight with humidity was measured, which was combined with powder X-ray diffraction characterization to observe the effect of humidity on crystalline form transformation of the sample.

Structure (SMILES): NC(=O)CN1C[C@H](O)CC1=O [dextral oxiracetam]
- solubility [1]: ≥ 100 mg/mL
- change in crystalline form ([2]; after 2 h): no change
- change in crystalline form ([2]; after 10 days): no change
- change in crystalline form ([2]; after 15 days): no change
- crystal transformation in accelerated stability test ([2]; between 2 h and 15 d): did not undergo crystal transformation
- crystalline form of the sample after humidity cycle ([3]; 25° C., relative humidity cycled 0% to 90% to 0% RH with a 10% gradient): still the crystalline form II of dextral oxiracetam
- crystal transformation / stability to humidity ([3]; room temperature, relative humidity of 0-95%): do not undergo crystal transformation; also recorded: no crystal transformation occurs
